Common to all, as to type: binding
What all share (details): Compound Concentration 10 µM

The target of assay [1] is T1, panel of 442 kinases (Homo sapiens, UniProt Q9Y463).
T1 construct: purchased KINOMEscan
The source says: (§1) We assessed the selectivity of members of this scaffold using the KINOMEscan methodology across a near comprehensive panel of 442 kinases [[18,27]].

For assay [2], the target named is T2, panel of 442 kinases (Homo sapiens, UniProt Q13627).
T2 construct: purchased KINOMEscan
From the text: as §1

Assay [3] deals with T3, panel of 442 kinases (Homo sapiens, UniProt P49674).
T3 construct: purchased KINOMEscan
T3 sequence (P49674 whole entry): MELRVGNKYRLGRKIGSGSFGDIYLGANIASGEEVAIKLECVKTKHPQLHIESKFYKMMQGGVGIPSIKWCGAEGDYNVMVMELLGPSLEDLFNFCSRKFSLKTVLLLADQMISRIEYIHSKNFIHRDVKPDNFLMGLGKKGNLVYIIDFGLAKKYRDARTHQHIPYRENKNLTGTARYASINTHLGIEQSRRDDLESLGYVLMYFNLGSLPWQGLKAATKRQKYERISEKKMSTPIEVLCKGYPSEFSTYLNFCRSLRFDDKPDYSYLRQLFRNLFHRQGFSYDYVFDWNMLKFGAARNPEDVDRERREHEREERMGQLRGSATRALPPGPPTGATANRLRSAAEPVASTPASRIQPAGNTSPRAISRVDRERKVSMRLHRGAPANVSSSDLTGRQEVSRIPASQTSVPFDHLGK
From the text: as §1

Assay [4] concerns the target T4, panel of 442 kinases (Homo sapiens, UniProt P42336, E545K).
T4 construct: purchased KINOMEscan
From the text: as §1

T4 sequence (P42336 whole entry E545K): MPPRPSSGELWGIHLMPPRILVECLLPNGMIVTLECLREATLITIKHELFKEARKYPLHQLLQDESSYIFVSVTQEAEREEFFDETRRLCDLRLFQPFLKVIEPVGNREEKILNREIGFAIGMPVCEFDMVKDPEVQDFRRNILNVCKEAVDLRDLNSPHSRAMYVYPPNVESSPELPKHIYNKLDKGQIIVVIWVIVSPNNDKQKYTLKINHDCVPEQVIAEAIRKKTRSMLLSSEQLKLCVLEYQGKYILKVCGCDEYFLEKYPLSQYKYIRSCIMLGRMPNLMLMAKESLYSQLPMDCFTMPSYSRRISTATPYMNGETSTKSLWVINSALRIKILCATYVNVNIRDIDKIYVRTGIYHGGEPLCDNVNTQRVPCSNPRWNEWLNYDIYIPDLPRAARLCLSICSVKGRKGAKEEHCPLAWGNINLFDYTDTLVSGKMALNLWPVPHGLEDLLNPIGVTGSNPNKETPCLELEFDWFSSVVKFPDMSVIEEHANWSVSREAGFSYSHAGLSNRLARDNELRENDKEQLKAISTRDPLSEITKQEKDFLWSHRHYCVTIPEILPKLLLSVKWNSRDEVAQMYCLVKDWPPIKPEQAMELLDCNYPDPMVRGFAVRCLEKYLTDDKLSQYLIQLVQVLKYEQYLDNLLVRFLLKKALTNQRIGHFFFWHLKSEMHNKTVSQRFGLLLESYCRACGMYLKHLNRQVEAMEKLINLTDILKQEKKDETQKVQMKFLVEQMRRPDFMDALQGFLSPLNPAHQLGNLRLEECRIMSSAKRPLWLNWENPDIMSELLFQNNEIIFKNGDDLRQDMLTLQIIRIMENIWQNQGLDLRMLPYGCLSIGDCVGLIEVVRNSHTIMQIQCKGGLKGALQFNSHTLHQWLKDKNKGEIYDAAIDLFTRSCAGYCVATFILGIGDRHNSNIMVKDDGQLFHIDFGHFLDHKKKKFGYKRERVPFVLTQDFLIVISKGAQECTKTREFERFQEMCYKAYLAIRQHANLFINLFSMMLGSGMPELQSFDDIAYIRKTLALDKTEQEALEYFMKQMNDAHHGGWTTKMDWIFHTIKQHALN
T1 sequence (Q9Y463 whole entry): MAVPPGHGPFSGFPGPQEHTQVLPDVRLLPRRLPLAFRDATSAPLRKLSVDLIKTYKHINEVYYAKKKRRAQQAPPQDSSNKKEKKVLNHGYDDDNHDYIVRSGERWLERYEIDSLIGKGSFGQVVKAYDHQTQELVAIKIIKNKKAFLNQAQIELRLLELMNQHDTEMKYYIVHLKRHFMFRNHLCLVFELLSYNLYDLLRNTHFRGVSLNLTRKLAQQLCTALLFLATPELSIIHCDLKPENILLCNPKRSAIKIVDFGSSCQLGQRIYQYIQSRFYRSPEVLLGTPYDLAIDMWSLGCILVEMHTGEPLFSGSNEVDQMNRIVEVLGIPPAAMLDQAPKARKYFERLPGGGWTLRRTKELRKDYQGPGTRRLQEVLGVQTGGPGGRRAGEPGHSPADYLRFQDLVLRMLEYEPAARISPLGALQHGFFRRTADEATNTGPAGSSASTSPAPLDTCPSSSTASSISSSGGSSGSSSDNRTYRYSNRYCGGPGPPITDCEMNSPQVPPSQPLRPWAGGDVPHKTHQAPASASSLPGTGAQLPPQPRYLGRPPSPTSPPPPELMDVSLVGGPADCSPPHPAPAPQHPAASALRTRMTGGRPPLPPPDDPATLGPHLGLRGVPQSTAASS

For `COc1cc(C(=O)N2CCC(N3CCN(C)CC3)CC2)ccc1Nc1ncc2c(n1)N(C1CCCC1)c1ccccc1C(=O)N2C` [Compound 25, 11-cyclopentyl-2-((2-methoxy-4-(4-(4-methylpiperazin-1-yl)piperidine-1-carbonyl)phenyl)amino)-5-methyl-5H-benzo[e]pyrimido[5,4-b][1,4]diazepin-6(11H)-one], the “KINOMEscan: DYRK1B” value at panel of 442 kinases [1] is recorded as 69. Further, on panel of 442 kinases [2], the “KINOMEscan: DYRK1A” value amounted to 100. Besides, at panel of 442 kinases [3], the “KINOMEscan: CSNK1E” value is given as 100. Besides, on panel of 442 kinases [4], the “KINOMEscan: PIK3CA(E545K)” value stood at 100.

Regarding `COc1cc(C(=O)N2CCC(N3CCN(C)CC3)CC2)ccc1Nc1ncc2c(n1)N1CCc3cccc(c31)C(=O)N2C` [Compound 24], on panel of 442 kinases [2], the “KINOMEscan: DYRK1A” value was 67. Further, the “KINOMEscan: CSNK1E” value on panel of 442 kinases [3] was 81.

With `COc1cc(C(=O)N2CCC(N3CCN(C)CC3)CC2)ccc1Nc1ncc2c(n1)N(C)c1ccccc1C(=O)N2C` [15 (LRRK2-IN-1)], the “KINOMEscan: DYRK1B” value on panel of 442 kinases [1] came out at 94. For the same molecule, on panel of 442 kinases [2], the “KINOMEscan: DYRK1A” value is given as 99. Further, the “KINOMEscan: CSNK1E” value on panel of 442 kinases [3] stood at 95. Besides, on panel of 442 kinases [4], the “KINOMEscan: PIK3CA(E545K)” value was 100.

Regarding `CCOc1cc(C(=O)N2CCC(N3CCN(C)CC3)CC2)ccc1Nc1ncc2c(n1)N(C1CCCC1)c1ccccc1C(=O)N2C` [Compound 26], the “KINOMEscan: DYRK1B” value on panel of 442 kinases [1] came out at 71. The “KINOMEscan: DYRK1A” value on panel of 442 kinases [2] is reported as 88. Moreover, the “KINOMEscan: CSNK1E” value on panel of 442 kinases [3] stood at 100. In addition, the “KINOMEscan: PIK3CA(E545K)” value on panel of 442 kinases [4] is 100.

(Values after PMC3914206.)
